In ChEMBL document CHEMBL1144972, “Benzo[f]naphtyridones: a new family of topical antibacterial agents active on multi-resistant Gram-positive pathogens” (2003):
≈ marks a conversion by molar mass, not a printed value.

Experiments:
Assay type in all cases: functional
Streptococcus pyogenes = assay: Minimum inhibitory concentration against Streptococcus pyogenes Dig 7
Staphylococcus aureus [1] = assay: Minimum inhibitory concentration against Staphylococcus aureus RN4220
Staphylococcus aureus [2] = assay: Minimum inhibitory concentration against Staphylococcus aureus AS5155

Compound | MIC (Streptococcus pyogenes) | MIC (Staphylococcus aureus [1]) | MIC (Staphylococcus aureus [2])
Cn1cc(C(=O)O)c(=O)c2c3ccc(F)c(N4CCN(c5cccc(C(F)(F)F)c5)CC4)c3ncc21 | 16 µg/mL (≈ 32 µM) | 2 µg/mL (≈ 4 µM) | 4 µg/mL (≈ 7.99 µM)
Cn1cc(C(=O)O)c(=O)c2c3cc(F)c(N4CCCC(C)(C)C4)cc3ncc21 | 4 µg/mL (≈ 10.4 µM) | 4 µg/mL (≈ 10.4 µM) | 4 µg/mL (≈ 10.4 µM)
Cn1cc(C(=O)O)c(=O)c2c3cc(N4C[C@@]5(C)C[C@@H]4CC(C)(C)C5)c(F)cc3ncc21 | 4 µg/mL (≈ 9.45 µM) | 2 µg/mL (≈ 4.72 µM) | 2 µg/mL (≈ 4.72 µM)
Cc1ccc(N2CCN(c3cc4c(ncc5c4c(=O)c(C(=O)O)cn5C)c(F)c3Cl)CC2)cc1F | 2 µg/mL (≈ 4.01 µM) | 1 µg/mL (≈ 2 µM) | 1 µg/mL (≈ 2 µM)
C[N+](C)(C)CCO.Cn1cc(C(=O)[O-])c(=O)c2cc3cc(F)c(N4CCN(c5ccc(F)cc5)CC4)cc3nc21 | 0.5 µg/mL | 0.25 µg/mL | 2 µg/mL
Cn1cc(C(=O)O)c(=O)c2c3cc(N4CCN(c5ccc(Cl)c(F)c5)CC4)c(Cl)c(F)c3ncc21 | 16 µg/mL (≈ 30.8 µM) | 2 µg/mL (≈ 3.85 µM) | 1 µg/mL (≈ 1.93 µM)
Cc1ccc(N2CCN(c3ccc4c(ncc5c4c(=O)c(C(=O)O)cn5C)c3F)CC2)cc1F | 16 µg/mL (≈ 34.4 µM) | 4 µg/mL (≈ 8.61 µM) | 2 µg/mL (≈ 4.31 µM)
C/C(=C\C(=O)OCCCCCCCCC(=O)O)C[C@@H]1OC[C@H](C[C@@H]2O[C@H]2[C@@H](C)[C@H](C)O)[C@@H](O)[C@H]1O [MUPIROCIN] | 0.12 µg/mL (≈ 0.24 µM) | 0.5 µg/mL (≈ 0.999 µM) | 1 µg/mL (≈ 2 µM)
CCn1cc(C(=O)O)c(=O)c2cc(F)c(N3CCN(C)CC3)cc21 [PEFLOXACIN] | 8 µg/mL (≈ 24 µM) | 0.5 µg/mL (≈ 1.5 µM) | 64 µg/mL (≈ 192 µM)
